Reference: patent EP1948196B1, “USE OF TETRAORGANOSILICON COMPOUNDS” (Salama, Zoser B., priority 2005, dated 2007)
≈ marks a conversion by molar mass, not a printed value. Like-named read-outs stand apart in the source and are kept apart here. Numbered stars: 1 amine (or outer) side, 2 acyl side, 3 side chain; on linkers, the order of the positions; unused ones are H or OH. Bridge positions count the residues as written; N and C are the ends. Peptide text beside a SMILES is read from it. I, II: the chains in the order shown. X2 = c1ccc([Si](O[*:1])(O[*:2])c2ccccc2)cc1

How the values were obtained:
[1] = tested on: Plattenepihtelkarzinomen oder Plasmozytomen; experiment: Effect against metastasis in rats; format: in vivo; settings: in Ratten
T47D (Brustkrebs) = experiment: MTT test, triplicate, two-fold dilutions; format: cell-based; settings: Homo sapiens, T47D, read-out: IC50 T47D
Protocol: (§1) Die Silan wurden in Ethanol aufgelöst und in Zellkulturmedien in Konzentrationen von bis zu 500 µg/ml resuspendiert. Es wurden MTT Tests in dreifacher Ausführung durchgeführt, für welche doppelte Lösungen (7 Schritte) und colo205 (Kofon-Karzinom), BxPC3 (pankreatisches Adenokarzinom) sowie T47D (Brustkrebs) benutzt wurden.

[2] = tested on: BxPC3 (pankreatisches Adenokarzinom); experiment: MTT test, triplicate, two-fold dilutions; format: cell-based; settings: Homo sapiens
Protocol: as §1

colo205 (Kofon-Karzinom) = experiment: MTT test, triplicate, two-fold dilutions; format: cell-based; settings: Homo sapiens
Protocol: as §1

Seminome = experiment: Effect on seminomas
Angiosarkome [3] = experiment: Effect on angiosarcomas
Hepatitis B-Viren = experiment: Antiviral effect; settings: in particular as vesicles holding antisense constructs
Angiosarkome [4] = experiment: Effect on angiosarcomas; remark: listed apart in the source
Rhino-Viren = experiment: Antiviral effect; settings: in particular as vesicles holding antisense constructs
Osteosarkome = experiment: Effect on osteosarcomas
[5] = COLO 205, read-out: IC50 Colo205
[6] = BXPC-3, up to 500 µg/ml, read-out: IC50 BxPC3
[7] = COLO 205, up to 500 µg/ml, read-out: IC50 Colo205

CCCCCCCC(=O)O[Si](CC)(CC)OC(=O)CCCCCCC [Di(octanoyloxy)diethylsilan]
Wirkung gegen die Metastasierung von Plattenepihtelkarzinomen oder Plasmozytomen [1]: zeigen eine Wirkung

CCCCCCCCCC(=O)O[Si](CC)(CC)OC(=O)CCCCCCCCC [Si 12, Di (decanoyloxy) diethylsilan]
IC50 (T47D (Brustkrebs)): 600 µg/mL (≈ 1400 µM)
IC50 ([2]; BXPC-3, read-out: IC50 BxPC3): 140 µg/mL (≈ 327 µM)
IC50 (colo205 (Kofon-Karzinom); [5]): 300 µg/mL (≈ 700 µM)
Wirkung gegen die Metastasierung von Plattenepihtelkarzinomen oder Plasmozytomen [1]: zeigen eine Wirkung

CCCCCCCCCCC(=O)O[Si](C)(C)OC(=O)CCCCCCCCCC [Si 2, Di (undecanoyloxy) dimethylsilan]
IC50 (T47D (Brustkrebs); up to 500 µg/ml): 125 µg/mL (≈ 292 µM)
IC50 [2, 6]: 80 µg/mL (≈ 187 µM)
IC50 (colo205 (Kofon-Karzinom); [7]): 125 µg/mL (≈ 292 µM)
Wirkung gegen die Metastasierung von Plattenepihtelkarzinomen oder Plasmozytomen [1]: zeigen eine Wirkung

CCCCCCCCCCCCCC(=O)O[Si](CCC)(CCC)OC(=O)CCCCCCCCCCCCC [Di(tetradecanoyloxy)dipropylsilan]
Wirkung auf Seminome (Seminome): zeigen eine Wirkung
Wirkung gegen Angiosarkome (Angiosarkome [3]): zeigen eine Wirkung
Wirkung gegen Hepatitis B-Viren (Hepatitis B-Viren): zeigen eine Wirkung

CCCCCCCCCCCCCCC(=O)O[Si](C)(C)OC(=O)CCCCCCCCCCCCCC [Di(pentadecanoyloxy)dimethylsilan]
Wirkung gegen die Metastasierung von Plattenepihtelkarzinomen oder Plasmozytomen [1]: zeigen eine Wirkung

CC(C)[C@H](N)C(=O)N[C@H](C(=O)N[C@H](C(=O)N[C@H](C(=O)N[C@H](C(=O)N[C@H](C(=O)N[C@H](C(=O)O[Si](OC(=O)[C@@H](NC(=O)[C@@H](NC(=O)[C@@H](NC(=O)[C@@H](NC(=O)[C@@H](NC(=O)[C@@H](NC(=O)[C@@H](N)C(C)C)C(C)C)C(C)C)C(C)C)C(C)C)C(C)C)C(C)C)(c1ccccc1)c1ccccc1)C(C)C)C(C)C)C(C)C)C(C)C)C(C)C)C(C)C [Diphenyl bis(heptavalyl)silylester] (I: H-VVVVVVV / II: H-VVVVVVV; linker I:C-II:C via X2)
Wirkung gegen Angiosarkome (Angiosarkome [4]): zeigen eine Wirkung

CCCCCCCCCCCCC(=O)O[Si](C)(C)OC(=O)CCCCCCCCCCCC [Si 3, Di (tridecanoyloxy) dimethylsilan]
IC50 (T47D (Brustkrebs)): 80 µg/mL (≈ 165 µM)
IC50 ([2]; BXPC-3, read-out: IC50 BxPC3): 80 µg/mL (≈ 165 µM)
IC50 (colo205 (Kofon-Karzinom); [5]): 230 µg/mL (≈ 474 µM)
Wirkung gegen die Metastasierung von Plattenepihtelkarzinomen oder Plasmozytomen [1]: zeigen eine Wirkung

CCCCCCCCCCCCC(=O)O[Si](OC(=O)CCCCCCCCCCCC)(c1ccccc1)c1ccccc1 [Si 7, Di (tridecanoyloxy) diphenylslan]
Wirkung gegen Rhino-Viren (Rhino-Viren): zeigen eine Wirkung
IC50 (T47D (Brustkrebs); up to 500 µg/ml): 80 µg/mL (≈ 131 µM)
IC50 [2, 6]: 60 µg/mL (≈ 98.5 µM)
IC50 (colo205 (Kofon-Karzinom); [7]): 125 µg/mL (≈ 205 µM)
Wirkung auf Osteosarkome (Osteosarkome): zeigen eine Wirkung

CCCCCCCCCCCC(=O)O[Si](CCC)(CCC)OC(=O)CCCCCCCCCCC [Di(dodecanoyloxy)dipropylsilan]
Wirkung auf Seminome (Seminome): zeigen eine Wirkung
Wirkung gegen Angiosarkome (Angiosarkome [3]): zeigen eine Wirkung
Wirkung gegen Hepatitis B-Viren (Hepatitis B-Viren): zeigen eine Wirkung

CC(C)[C@H](N)C(=O)N[C@H](C(=O)N[C@H](C(=O)N[C@H](C(=O)N[C@H](C(=O)O[Si](OC(=O)[C@@H](NC(=O)[C@@H](NC(=O)[C@@H](NC(=O)[C@@H](NC(=O)[C@@H](N)C(C)C)C(C)C)C(C)C)C(C)C)C(C)C)(c1ccccc1)c1ccccc1)C(C)C)C(C)C)C(C)C)C(C)C [Diphenyl bis(pentavalyl)silylester]
Wirkung gegen Angiosarkome (Angiosarkome [4]): zeigen eine Wirkung

CC/C=C\C/C=C\C/C=C\CCCCCCCC(=O)O[Si](OC(=O)CCCCCCC/C=C\C/C=C\C/C=C\CC)(c1ccccc1)c1ccccc1 [Di(linolenoylooxy)diphenylsilan]
Wirkung gegen Rhino-Viren (Rhino-Viren): zeigen eine Wirkung
Wirkung auf Osteosarkome (Osteosarkome): zeigen eine Wirkung

CCCCCCCC/C=C\CCCCCCCC(=O)O[Si](OC(=O)CCCCCCC/C=C\CCCCCCCC)(c1ccccc1)c1ccccc1
Wirkung gegen Rhino-Viren (Rhino-Viren): zeigen eine Wirkung
Wirkung auf Osteosarkome (Osteosarkome): zeigen eine Wirkung

CCCCCCCCCCCCCCCCC(=O)O[Si](OC(=O)CCCCCCCCCCCCCCCC)(c1ccccc1)c1ccccc1 [Di(heptadecanoyloxy)diphenylsilan]
Wirkung gegen Rhino-Viren (Rhino-Viren): zeigen eine Wirkung
Wirkung auf Osteosarkome (Osteosarkome): zeigen eine Wirkung

CC(C)[C@H](N)C(=O)N[C@H](C(=O)N[C@H](C(=O)N[C@H](C(=O)N[C@H](C(=O)N[C@H](C(=O)N[C@H](C(=O)N[C@H](C(=O)N[C@H](C(=O)O[Si](OC(=O)[C@@H](NC(=O)[C@@H](NC(=O)[C@@H](NC(=O)[C@@H](NC(=O)[C@@H](NC(=O)[C@@H](NC(=O)[C@@H](NC(=O)[C@@H](NC(=O)[C@@H](N)C(C)C)C(C)C)C(C)C)C(C)C)C(C)C)C(C)C)C(C)C)C(C)C)C(C)C)(c1ccccc1)c1ccccc1)C(C)C)C(C)C)C(C)C)C(C)C)C(C)C)C(C)C)C(C)C)C(C)C [Diphenyl bis(nonavalyl)silylester] (I: H-VVVVVVVVV / II: H-VVVVVVVVV; linker I:C-II:C via X2)
Wirkung gegen Angiosarkome (Angiosarkome [4]): zeigen eine Wirkung

CCCCC/C=C\C/C=C\CCCCCCCC(=O)O[Si](OC(=O)CCCCCCC/C=C\C/C=C\CCCCC)(c1ccccc1)c1ccccc1 [Di (linoylooxy)diphenylsilan]
Wirkung gegen Rhino-Viren (Rhino-Viren): zeigen eine Wirkung
Wirkung auf Osteosarkome (Osteosarkome): zeigen eine Wirkung

CCCCCCCCCCCCC(=O)O[Si](CCC)(CCC)OC(=O)CCCCCCCCCCCC [Di(tridecanoyloxy)dipropylsilan]
Wirkung auf Seminome (Seminome): zeigen eine Wirkung
Wirkung gegen Angiosarkome (Angiosarkome [3]): zeigen eine Wirkung
Wirkung gegen Hepatitis B-Viren (Hepatitis B-Viren): zeigen eine Wirkung

CC[Si](CC)(OC(=O)CNC(=O)CNC(=O)CNC(=O)CNC(=O)CNC(=O)CN)OC(=O)CNC(=O)CNC(=O)CNC(=O)CNC(=O)CNC(=O)CN [Diethyl bis(hexaglycyl)Silylester]
Wirkung gegen Angiosarkome (Angiosarkome [4]): zeigen eine Wirkung

CC(C)[C@H](N)C(=O)N[C@H](C(=O)N[C@H](C(=O)N[C@H](C(=O)N[C@H](C(=O)N[C@H](C(=O)N[C@H](C(=O)N[C@H](C(=O)O[Si](OC(=O)[C@@H](NC(=O)[C@@H](NC(=O)[C@@H](NC(=O)[C@@H](NC(=O)[C@@H](NC(=O)[C@@H](NC(=O)[C@@H](NC(=O)[C@@H](N)C(C)C)C(C)C)C(C)C)C(C)C)C(C)C)C(C)C)C(C)C)C(C)C)(c1ccccc1)c1ccccc1)C(C)C)C(C)C)C(C)C)C(C)C)C(C)C)C(C)C)C(C)C [Diphenyl bis(octavalyl)silylester] (I: H-VVVVVVVV / II: H-VVVVVVVV; linker I:C-II:C via X2)
Wirkung gegen Angiosarkome (Angiosarkome [4]): zeigen eine Wirkung

CCCCCCCCC(=O)O[Si](CC)(CC)OC(=O)CCCCCCCC [Di(nonanoyloxy)diethyisilan]
Wirkung gegen die Metastasierung von Plattenepihtelkarzinomen oder Plasmozytomen [1]: zeigen eine Wirkung

CCCCCCCCCCCCCCCCC(=O)O[Si](C)(C)OC(=O)CCCCCCCCCCCCCCCC [Di(heptadecanoyloxy)dimethylslan]
Wirkung gegen die Metastasierung von Plattenepihtelkarzinomen oder Plasmozytomen [1]: zeigen eine Wirkung

CCCCCCCCCCCCCCC(=O)O[Si](CCC)(CCC)OC(=O)CCCCCCCCCCCCCC [Di(pentadecanoyloxy)dipropylsilan]
Wirkung auf Seminome (Seminome): zeigen eine Wirkung
Wirkung gegen Angiosarkome (Angiosarkome [3]): zeigen eine Wirkung
Wirkung gegen Hepatitis B-Viren (Hepatitis B-Viren): zeigen eine Wirkung

CC(C)[C@H](N)C(=O)N[C@H](C(=O)N[C@H](C(=O)N[C@H](C(=O)O[Si](OC(=O)[C@@H](NC(=O)[C@@H](NC(=O)[C@@H](NC(=O)[C@@H](N)C(C)C)C(C)C)C(C)C)C(C)C)(c1ccccc1)c1ccccc1)C(C)C)C(C)C)C(C)C [Diphenyl bis(tetravalyl)silylester]
Wirkung gegen Angiosarkome (Angiosarkome [4]): zeigen eine Wirkung

CCCCCCCCCCC(=O)O[Si](OC(=O)CCCCCCCCCC)(c1ccccc1)c1ccccc1 [Di(undecanoyloxy)diphenylsilan]
Wirkung gegen Rhino-Viren (Rhino-Viren): zeigen eine Wirkung
Wirkung auf Osteosarkome (Osteosarkome): zeigen eine Wirkung

CCCCCCCCC(=O)O[Si](OC(=O)CCCCCCCC)(c1ccccc1)c1ccccc1 [Di(nonanoyloxy)diphenylsilan]
Wirkung gegen Rhino-Viren (Rhino-Viren): zeigen eine Wirkung
Wirkung auf Osteosarkome (Osteosarkome): zeigen eine Wirkung

CCCCCCCCCCC(=O)O[Si](CC)(CC)OC(=O)CCCCCCCCCC [Si 4, Di (undecanoyloxy) diethylslan]
IC50 (T47D (Brustkrebs); up to 500 µg/ml): 180 µg/mL (≈ 394 µM)
IC50 [2, 6]: 100 µg/mL (≈ 219 µM)
IC50 (colo205 (Kofon-Karzinom); [7]): 200 µg/mL (≈ 438 µM)
Wirkung gegen die Metastasierung von Plattenepihtelkarzinomen oder Plasmozytomen [1]: zeigen eine Wirkung

CC(C)[C@H](N)C(=O)N[C@H](C(=O)N[C@H](C(=O)N[C@H](C(=O)N[C@H](C(=O)N[C@H](C(=O)O[Si](OC(=O)[C@@H](NC(=O)[C@@H](NC(=O)[C@@H](NC(=O)[C@@H](NC(=O)[C@@H](NC(=O)[C@@H](N)C(C)C)C(C)C)C(C)C)C(C)C)C(C)C)C(C)C)(c1ccccc1)c1ccccc1)C(C)C)C(C)C)C(C)C)C(C)C)C(C)C [Diphenyl bis(hexavalyl)silylester] (I: H-VVVVVV / II: H-VVVVVV; linker I:C-II:C via X2)
Wirkung gegen Angiosarkome (Angiosarkome [4]): zeigen eine Wirkung
